Source: US11304929B2, “Tosylacetate based compounds and derivatives thereof as PHGDH inhibitors” (priority 2017, dated 2022)
Read-outs that look alike come from different tables or passages of the source.

Key:
MDA-MB-468 = test: 13C3 Serine Assay MDA-MB-468 (13C3 serine levels by LC/MS/MS); format: cell-based; settings: Homo sapiens
PHGDH = PHGDH (Homo sapiens (Human), UniProt O43175); test: 3-Phosphoglycerate Dehydrogenase (PHGDH) Fluorescence Intensity Assay, run at two NAD/3-PG ratios: PHGDH_HIGH_NAD/3-PG (250 μM NAD/500 μM 3-PG) and PHGDH_500_NAD/3-PG (500 μM NAD/500 μM 3-PG); format: biochemical
[1] = MDA-MB-468 cells, 13C3 serine levels by LC/MS/MS, read-out: IC50 (13CSERINE)
[2] = 250 μM NAD/500 μM 3-PG, read-out: IC50 (PHGDH_HIGH_NAD/3-PG)
[3] = MDA-MB-468, read-out: IC50 (13CSERINE)
[4] = 500 μM NAD/500 μM 3-PG, read-out: IC50 (PHGDH_500_NAD/3-PG)

Chain of PHGDH (O43175 2-533 limits assumed): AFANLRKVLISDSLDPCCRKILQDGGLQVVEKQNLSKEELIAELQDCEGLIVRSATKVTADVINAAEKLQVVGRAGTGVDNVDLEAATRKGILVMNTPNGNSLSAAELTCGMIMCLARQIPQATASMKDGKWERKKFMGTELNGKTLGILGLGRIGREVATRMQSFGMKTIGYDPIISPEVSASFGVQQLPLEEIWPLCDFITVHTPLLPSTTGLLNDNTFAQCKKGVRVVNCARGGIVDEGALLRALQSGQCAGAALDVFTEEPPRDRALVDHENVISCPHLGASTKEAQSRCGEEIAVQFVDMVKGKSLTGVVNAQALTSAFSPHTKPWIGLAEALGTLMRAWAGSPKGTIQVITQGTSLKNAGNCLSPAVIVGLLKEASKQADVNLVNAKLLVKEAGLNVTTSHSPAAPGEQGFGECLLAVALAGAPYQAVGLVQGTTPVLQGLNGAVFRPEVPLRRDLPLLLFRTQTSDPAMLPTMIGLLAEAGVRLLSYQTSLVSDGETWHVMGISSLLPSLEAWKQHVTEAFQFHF

| SMILES | IC50 (MDA-MB-468; [1]) [nM] | IC50 (PHGDH; [2]) [nM] | IC50 (MDA-MB-468; [3]) [nM] | IC50 (PHGDH; [4]) [nM] |
| --- | --- | --- | --- | --- |
| COC(=O)CS(=O)(=O)c1ccc([C@@H](CO)NC(=O)c2cc(-c3ccccc3)nn2C)cc1 [Example 02-007, methyl 2-{4-[(1S)-2-hydroxy-1-[(1-methyl-3-phenyl-1H-pyrazol-5-yl)formamido]ethyl]benzenesulfonyl}acetate] | 167 | 4340 | – | – |
| CCOC(=O)C(C)(C)S(=O)(=O)c1ccc([C@@H](C)NC(=O)c2cc3c(Cl)cc(C)cc3n2C)cc1 [Example 05-003, ethyl 2-{4-[(1R)-1-[(4-chloro-1,6-dimethyl-1H-indol-2-yl)formamido]ethyl]benzenesulfonyl}-2-methylpropanoate] | 30.2 | 15900 | – | – |
| Cc1cc(Cl)c2cc(C(=O)N[C@H](C)c3ccc(S(=O)(=O)CC(=O)OCCS(C)(=O)=O)cc3)n(C)c2c1 [Example 09-020, 2-methanesulfonylethyl 2-{4-[(1R)-1-[(4-chloro-1,6-dimethyl-1H-indol-2-yl)formamido]ethyl]benzenesulfonyl}acetate] | 37.4 | 54 | – | – |
| COC(=O)CS(=O)(=O)c1ccc([C@@H](C)NC(=O)c2cc(-c3ccccc3)nn2C)cn1 [Example 02-010, methyl 2-({5-[(1R)-1-[(1-methyl-3-phenyl-1H-pyrazol-5-yl)formamido]ethyl]pyridin-2-yl}sulfonyl)acetate] | 594 | 3690 | – | – |
| COC(=O)C(C)(C)S(=O)(=O)c1ccc([C@@H](C)NC(=O)c2cc(-c3ccc(F)cc3)nn2C)cc1 [Example 06-002, methyl 2-{4-[(1R)-1-{[3-(4-fluorophenyl)-1-methyl-1H-pyrazol-5-yl]formamido}ethyl]benzenesulfonyl}-2-methylpropanoate] | 1880 | 14700 | – | – |
| CCOC(=O)CS(=O)(=O)c1ccc([C@@H](C)NC(=O)c2cc3c(Cl)cc(-c4cnn(C)c4)cc3n2C)cc1 [Example 01-009, ethyl 2-{4-[(1R)-1-{[4-chloro-1-methyl-6-(1-methyl-1H-pyrazol-4-yl)-1H-indol-2-yl]formamido}ethyl]benzenesulfonyl}acetate] | 44.1 | 815 | – | – |
| Cc1cc(Cl)c2cc(C(=O)N[C@H](C)c3ccc(S(=O)(=O)C(C)C(=O)OC(C)C)cc3)n(C)c2c1 (stereo partly drawn) [Example 05-004, propan-2-yl 2-{4-[(1R)-1-[(4-chloro-1,6-dimethyl-1H-indol-2-yl)formamido]ethyl]benzenesulfonyl}propanoate] | 10.1 | 11800 | – | – |
| COCCOC(=O)CS(=O)(=O)c1ccc([C@@H](C)NC(=O)c2cc3c(Cl)c(Cl)c(C)nc3n2C)cc1 [Example 09-003, 2-methoxyethyl 2-{4-[(1R)-1-({4,5-dichloro-1,6-dimethyl-1H-pyrrolo[2,3-b]pyridin-2-yl}formamido)ethyl]benzenesulfonyl}acetate] | 82.8 | 286 | – | – |
| CC(C)OC(=O)CS(=O)(=O)c1ccc([C@@H](C)NC(=O)c2cc3c(Cl)cc(-c4cnn(C)c4)cc3n2C)cc1 [Example 01-011, propan-2-yl 2-{4-[(1R)-1-{[4-chloro-1-methyl-6-(1-methyl-1H-pyrazol-4-yl)-1H-indol-2-yl]formamido}ethyl]benzenesulfonyl}acetate] | 489 | 1930 | – | – |
| Cc1cc(Cl)c2cc(C(=O)N[C@H](C)c3ccc(S(=O)(=O)CC(=O)O)cc3)n(C)c2c1 [Example 03-009, 2-{4-[(1R)-1-[(4-chloro-1,6-dimethyl-1H-indol-2-yl)formamido]ethyl]benzenesulfonyl}acetic acid] | – | 8 | 3570 | – |
| COC(=O)CS(=O)(=O)c1ccc([C@@H](C)NC(=O)c2cc3cc(Cl)c(-c4cnn(CCN5CCOCC5)c4)cc3n2C)cc1 [Example 01-027, methyl 2-{4-[(1R)-1-[(5-chloro-1-methyl-6-{1-[2-(morpholin-4-yl)ethyl]-1H-pyrazol-4-yl}-1H-indol-2-yl)formamido]ethyl]benzenesulfonyl}acetate] | 34.2 | 248 | – | – |
| CCOC(=O)C(C)S(=O)(=O)c1ccc([C@@H](C)NC(=O)c2cc3c(Cl)cc(C)cc3n2C)cc1 (stereo partly drawn) [Example 05-011, ethyl 2-{4-[(1R)-1-[(4-chloro-1,6-dimethyl-1H-indol-2-yl)formamido]ethyl]benzenesulfonyl}propanoate] | 3.9 | 5020 | – | – |
| COCCC(C(=O)OC)S(=O)(=O)c1ccc([C@@H](C)NC(=O)c2cc3c(Cl)cc(C)cc3n2C)cc1 (stereo partly drawn) [Example 05-005, methyl 2-{4-[(1R)-1-[(4-chloro-1,6-dimethyl-1H-indol-2-yl)formamido]ethyl]benzenesulfonyl}-4-methoxybutanoate] | 831 | 652 | – | – |
| COC(=O)CS(=O)(=O)c1ccc([C@@H](C)NC(=O)c2cc3c(Cl)c(Cl)c(C)nc3n2C)cc1 [Example 01-006, methyl 2-{4-[(1R)-1-({4,5-dichloro-1,6-dimethyl-1H-pyrrolo[2,3-b]pyridin-2-yl}formamido)ethyl]benzenesulfonyl}acetate] | 88.8 | 485 | – | – |
| COC(=O)CS(=O)(=O)c1ccc([C@@H](CO)NC(=O)c2cc3c(Cl)c(Cl)c(C)cc3n2C)cc1 [Example 01-007, methyl 2-{4-[(1S)-1-[(4,5-dichloro-1,6-dimethyl-1H-indol-2-yl)formamido]-2-hydroxyethyl]benzenesulfonyl}acetate] | 5 | 121 | – | – |
| CO[C@@H](C)COC(=O)CS(=O)(=O)c1ccc([C@@H](C)NC(=O)c2cc3c(Cl)cc(C)cc3n2C)cc1 [Example 09-004, (2S)-2-methoxypropyl 2-{4-[(1R)-1-[(4-chloro-1,6-dimethyl-1H-indol-2-yl)formamido]ethyl]benzenesulfonyl}acetate] | 78.6 | 394 | – | – |
| COC(=O)C1(S(=O)(=O)c2ccc([C@@H](C)NC(=O)c3cc4c(Cl)cc(C)cc4n3C)cc2)CC1 [Example 05-019, methyl 1-{4-[(1R)-1-[(4-chloro-1,6-dimethyl-1H-indol-2-yl)formamido]ethyl]benzenesulfonyl}cyclopropane-1-carboxylate] | 509 | 5310 | – | – |
| Cc1cc(Cl)c2cc(C(=O)N[C@H](C)c3ccc(S(=O)(=O)C4(C(=O)O)CCOCC4)cc3)n(C)c2c1 [Example 07-002, 4-{4-[(1R)-1-[(4-chloro-1,6-dimethyl-1H-indol-2-yl)formamido]ethyl]benzenesulfonyl}oxane-4-carboxylic acid] | 6900 | 7 | – | – |
| COC(=O)CS(=O)(=O)c1ccc([C@@H](C)NC(=O)c2cc3c(Cl)cc(C)cc3n2C)cc1 [Example 01-012, methyl 2-{4-[(1R)-1-[(4-chloro-1,6-dimethyl-1H-indol-2-yl)formamido]ethyl]benzenesulfonyl}acetate] | 52.5 | 412 | – | – |
| CCOC(=O)CS(=O)(=O)c1ccc([C@@H](CO)NC(=O)c2cc3c(Cl)c(Cl)c(C)cc3n2C)cc1 [Example 01-002, ethyl 2-{4-[(1S)-1-[(4,5-dichloro-1,6-dimethyl-1H-indol-2-yl)formamido]-2-hydroxyethyl]benzenesulfonyl}acetate] | – | 169 | 2.9 | 258 |
| Cc1cc(Cl)c2cc(C(=O)N[C@H](C)c3ccc(S(=O)(=O)C(C)C(=O)OC(C)(C)C)cc3)n(C)c2c1 (stereo partly drawn) [Example 05-001, tert-butyl 2-{4-[(1R)-1-[(4-chloro-1,6-dimethyl-1H-indol-2-yl)formamido]ethyl]benzenesulfonyl}propanoate] | 891 | 24400 | – | – |
| COC(=O)CS(=O)(=O)c1ccc([C@@H](C)NC(=O)c2cc3c(Cl)cc(-c4cnn(C)c4)cc3n2C)cc1 [Example 01-003, methyl 2-{4-[(1R)-1-{[4-chloro-1-methyl-6-(1-methyl-1H-pyrazol-4-yl)-1H-indol-2-yl]formamido}ethyl]benzenesulfonyl}acetate] | 109 | 905 | – | – |
| CCOC(=O)CS(=O)(=O)c1ccc([C@@H](C)NC(=O)c2cc(-c3cccc4cc[nH]c34)nn2C)cc1 [Example 02-005, ethyl 2-{4-[(1R)-1-{[3-(1H-indol-7-yl)-1-methyl-1H-pyrazol-5-yl]formamido}ethyl]benzenesulfonyl}acetate] | 64.8 | 3000 | – | – |
| COC(=O)C(C)(C)S(=O)(=O)c1ccc([C@@H](CO)NC(=O)c2cc3c(Cl)c(Cl)c(C)cc3n2C)cc1 [Example 05-017, methyl 2-{4-[(1S)-1-[(4,5-dichloro-1,6-dimethyl-1H-indol-2-yl)formamido]-2-hydroxyethyl]benzenesulfonyl}-2-methylpropanoate] | 0.3 | 1230 | – | 2960 |
| CCOC(=O)CS(=O)(=O)c1ccc([C@@H](C)NC(=O)c2cc(-c3ccc(F)cc3)nn2C)cc1 [Example 02-004, ethyl 2-{4-[(1R)-1-{[3-(4-fluorophenyl)-1-methyl-1H-pyrazol-5-yl]formamido}ethyl]benzenesulfonyl}acetate] | 62.1 | 3100 | – | – |
| CCOC(=O)CS(=O)(=O)c1ccc([C@@H](CO)NC(=O)c2cc3c(Cl)cc(C)cc3n2C)cc1 [Example 01-005, ethyl 2-{4-[(1S)-1-[(4-chloro-1,6-dimethyl-1H-indol-2-yl)formamido]-2-hydroxyethyl]benzenesulfonyl}acetate] | 3.3 | 223 | – | – |
| COC(=O)C1(S(=O)(=O)c2ccc([C@@H](C)NC(=O)c3cc(-c4ccc(F)cc4)nn3C)cc2)CCOCC1 [Example 06-001, methyl 4-{4-[(1R)-1-{[3-(4-fluorophenyl)-1-methyl-1H-pyrazol-5-yl]formamido}ethyl]benzenesulfonyl}oxane-4-carboxylate] | 25400 | 7700 | – | – |
| CCOC(=O)CS(=O)(=O)c1ccc([C@@H](C)NC(=O)c2cc3c(Cl)cc(C)cc3n2C)cc1 [Example 01-004, ethyl 2-{4-[(1R)-1-[(4-chloro-1,6-dimethyl-1H-indol-2-yl)formamido]ethyl]benzenesulfonyl}acetate] | 29.3 | 964 | – | – |
